Among the data in patent publication US5646184A, “Preparation for external application to the skin and novel benzoic acid derivatives” (Kao Corporation, priority 1993, dated 1997) are inhibition values, retold here.

This assay has as its system skin tissue containing sebaceous glands (sebum synthesis). The assay can be described thus: Percent sebum synthesis inhibition in cultured hamster auricle skin tissue containing sebaceous glands (radioactive sodium acetate incorporation into lipids; method of Hall et al.). The format is cell-based. The settings on record: Mesocricetus auratus, 3 hours culture, average of 6 animals; for inhibition at 10 µM: concentration 10 μM; for inhibition at 100 µM: concentration 100 μM; for inhibition at 8 µM: concentration 8 μM. The procedure:
The following test was conducted to evaluate the sebum synthesis inhibitory action of the benzoic acid derivatives according to the present invention.
Measurement of sebum synthesis was made in accordance with the method of Hall, et al. (cf. Arch. Dermatol. Res., 275:1-7 (1983)). The skin tissue (diameter: 4 mm) containing sebaceous glands, taken from the auricle of a male hamster, was cultured in a Krebes-Ringer's phosphate-buffered solution containing radioactive sodium acetate for 3 hours. The tissue was hydrolyzed and extracted with hexane. The amount of the radioactive labelled lipids in the hexane fraction was measured with a liquid scintillation counter to obtain the amount of the synthesized sebum. The skin tissue obtained from the left auricle of a hamster was tested using a Krebes-Ringer's phosphate-buffered solution, while that obtained from the right one of the same hamster was tested using a Krebes-Ringer's phosphate-buffered solution containing each of the compounds shown in Tables 1 and 2, and a percent synthesis inhibition was obtained according to the following numerical formula.
Percent sebum synthesis inhibition (%) =
100 - (amount of sebum synthesized in the presence of
a test compound)/(amount of sebum synthesized in the
absence of a test compound) × 100

Take `CC(CCOc1ccc(C(=O)O)c(O)c1)CC(C)(C)C` (centres unmarked) [Compound 15, 2-hydroxy-4-(3,5,5-trimethylhexyloxy)benzoic acid]: the inhibition – broadly, the percentage by which the read-out fell short of the control – at 10 µM was 66%.
Consider `CC(C)=CCC/C(C)=C/COc1cc(O)cc(C(=O)O)c1` [Compound 42, 3-{(2E)-3,7-dimethylocta-2,6-dienyloxy}-5-hydroxybenzoic acid], for which the inhibition at 100 µM came out at 70%.
For `CC(C)=CCCC(C)CCOc1ccc(C(=O)O)c(O)c1` (centres unmarked) [Compound 18, 4-(3,7-dimethyl-6-octenyloxy)-2-hydroxybenzoic acid], the inhibition at 10 µM stood at 45%.
In the case of `CCCCCCCCOc1ccc(C(=O)O)c(O)c1` [Compound 20, 2-hydroxy-4-n-octyloxybenzoic acid], the inhibition at 8 µM was found to be 26%.
The same measure, in the same setting: under `CC(CCOc1ccc(O)c(C(=O)O)c1)CC(C)(C)C` (centres unmarked) [Compound 23, 2-hydroxy-5-(3,5,5-trimethylhexyloxy)benzoic acid] stands 83%.
`CC(C)=CCC/C(C)=C/COc1ccc(O)c(C(=O)O)c1` [Compound 40, 5-{(2E)-3,7-dimethylocta-2,6-dienyloxy}-2-hydroxybenzoic acid]: the inhibition at 10 µM came to 72%.
In the case of `O=C(O)c1ccc(OCC2CCCCC2)cc1O` [Compound 16, 4-cyclohexylmethoxy-2-hydroxybenzoic acid], the inhibition at 10 µM was 44%.
Turning to `CC(C)=CCC/C(C)=C/COc1ccc(C(=O)O)c(O)c1` [Compound 39, 4-{(2E)-3,7-dimethylocta-2,6-dienyloxy}-2-hydroxybenzoic acid], the inhibition at 10 µM amounted to 52% and the inhibition at 100 µM is 93%.
Consider `CCCCC(CC)COc1ccc(C(=O)O)c(O)c1` (centres unmarked) [Compound 14, 4-(2-ethylhexyloxy)-2-hydroxybenzoic acid], for which the inhibition at 10 µM was 60%.
With `O=C(O)c1cc(OCCC2CCCCC2)ccc1O` [Compound 24, 5-(2-cyclohexylethoxy)-2-hydroxybenzoic acid], the inhibition at 8 µM is 78%.
The same measure, in the same setting: the result for `CC(=O)Oc1cc(OCC2CCCCC2)ccc1C(=O)O` [Compound 29, 2-acetoxy-4-cyclohexylmethoxybenzoic acid] reads 48%.
As to `CC(C)=CCC/C(C)=C/COc1cccc(C(=O)O)c1O` [Compound 41, 3-{(2E)-3,7-dimethylocta-2,6-dienyloxy}-2-hydroxybenzoic acid], the inhibition at 100 µM was 91%.
For the compound `CCCCC(CC)COc1ccc(O)c(C(=O)O)c1` (centres unmarked) [Compound 22, 5-(2-ethylhexyloxy)-2-hydroxybenzoic acid], the inhibition at 8 µM was found to be 84%.
As to `CC(=O)Oc1cc(OC/C=C(\C)CCC=C(C)C)ccc1C(=O)O` [Compound 45, 2-acetoxy-4-{(2E)-3,7-dimethylocta-2,6-dienyloxy}benzoic acid], the inhibition at 100 µM stood at 47%.
With `CCCCCCOc1ccc(O)c(C(=O)O)c1` [Compound 25, 5-n-hexyloxy-2-hydroxybenzoic acid], the inhibition at 8 µM stood at 80%.
As to `CC(C)=CCC/C(C)=C/CC/C(C)=C/COc1ccc(C(=O)O)c(O)c1` [Compound 43, 2-hydroxy-4-{(2E,6E)-3,7,11-trimethyl-2,6,10-dodecatrienyloxy}benzoic acid], the inhibition at 100 µM worked out at 47%.
Turning to `CCCCCCOc1ccc(C(=O)O)c(O)c1` [Compound 19, 4-n-hexyloxy-2-hydroxybenzoic acid], the inhibition at 8 µM turned out to be 58%.
Regarding `CCCCC(CC)COc1ccc(C(=O)OC)c(O)c1` (centres unmarked) [Compound 1, methyl 4-(2-ethylhexyloxy)-2-hydroxybenzoate], the inhibition at 100 µM turned out to be 32%.
With `O=C(O)c1ccc(OCCC2CCCCC2)cc1O` [Compound 17, 4-(2-cyclohexylethoxy)-2-hydroxybenzoic acid], the inhibition at 10 µM came out at 57%.
As to `CC(C)=CCC/C(C)=C/COc1ccc(C(=O)NCCO)c(O)c1` [Compound 46, N-(2-hydroxyethyl)-4-{(2E)-3,7-dimethylocta-2,6-dienyloxy}-2-hydroxybenzamide], the inhibition at 10 µM stood at 28%.
As to `CCCCC(CC)COc1ccc(C(=O)NCCO)c(O)c1` (centres unmarked) [Compound 27, N-(2-Hydroxyethyl)-4-(2-ethylhexyloxy)-2-hydroxybenzamide], the inhibition at 8 µM is 15%.
The same measure, in the same setting: under `CCCCCCCCCCOc1ccc(C(=O)O)c(O)c1` [Compound 21, 4-n-decyloxy-2-hydroxybenzoic acid] stands 13%.
